According to patent EP4029501A1, “COMBINATION OF POLYAROMATIC UREA DERIVATIVES AND GLUCOCORTICOID OR HDAC INHIBITOR FOR THE TREATMENT OF DISEASES OR CONDITIONS ASSOCIATED WITH MUSCLE CELLS AND/OR SATELLITE CELLS” (Anagenesis Biotechnologies, priority 2021, dated 2022):
Counter-ions that a name gives are not always drawn.

Tested on: muscle progenitors derived from DMD hiPSC
Experiment: Myotube assay: total myotube area per well (alpha-actinin staining)
Format: cell-based, human
Settings: Homo sapiens, Myotube, 72 h, DMD or WT cell source not given; for Emax: efficacy, MA = normalized Myotube Area, 3 days incubation; for EC50: myogenic activity, half-maximal generation of myotubes, 10 points dose-response 1.5 nM to 30 µM, 3 days
Protocol: An in vitro assay for assessing the efficacy of compounds for use in treating, ameliorating, delaying, curing and/or preventing a disease or condition associated with muscle cells and/or satellite cells is described in example 78. Herein, the generation of myotubes and satellite cells after adding a compound to a myotube assay workflow is assessed. Said myotube assay workflow is derived from wild-type or DMD human induced pluripotent stem cells (WT hiPSC or DMD hiPSC). Before the addition of said compound, the assay comprises satellite-like cells, but no significant amount of myotubes.
The efficacy of said compound for use in treating, ameliorating, delaying, curing and/or preventing a disease or condition associated with muscle cells and/or satellite cells is positively correlated with the generation of myotubes (i.e. the increase of the area occupied by myotubes on the assay) and/or satellite cells (i.e. the increase of the number of satellite cells) in the assay after adding said compound. The generation of myotubes by the addition of said compound is expressed as the EC50 value, the concentration of said compound that corresponds with the half-maximal generation of myotubes, and the MA (normalized myotube area) value, the normalized area occupied by generated myotubes on the assay. […] Since muscle cells are formed from myotubes during myogenesis, the generation of myotubes in the assay is a good indicator of the ability of said compound to induce the formation of functional muscle cells in vivo. The number of satellite cells is measured as the percentage of Pax7 positive cells, relative to the total number of cells in the assay, as shown in Figure 3. The percentage of Pax7 is a good indicator of the ability of said compound to induce the formation of satellite cells which are able to play a role in muscle repair and regeneration in vivo.
DMD human induced pluripotent stem cells (hereafter "DMD hiPSC"), generated from the NCRM-1 hiPSC WT cell line by gene editing, or WT human induced pluripotent stem cells (hereafter "WT hiPSC"), being NCRM-1 hiPSC wt cell line, have been differentiated according to Chal et al. 2015, 2016, to produce muscle progenitors (hereafter "hMP"). The hMP population contains satellite-like cells (i.e Pax7-positive cells) and satellite cells' progenies (i.e. Myogenin-positive cells).
Figure 1 provides an example of a Myotube assay workflow. At day 0, hMP are thawed and 3.1 million cells are plated into a T75-flask coated with hESC-qualified Matrigel™ (Corning) in SkGM proliferating medium (PromoCells), supplemented with 5 µM Y-27632 (Tocris Bioscience). On day 2, SkGM proliferating medium is refreshed. On day 4, hMP are harvested and transferred into a 384-well plate coated with collagen type I at a density of 3500 cells/well in a DMEM-based medium, containing 5% of knockout serum replacement (Gibco), 1% PenStrep (Gibco), 1% MEM NEAA (Gibco) and 0.1 mM 2-mercaptoethanol (Gibco) (hereafter "K5 medium") and 5 µM Y-27632. Compounds to be tested are then added in the medium and incubated for 3 days at 37°C. On day 7, cells are fixed and immunostained. For example, myotubes (alpha-actinin staining) and satellite-like (Pax7 staining) cells can be analyzed for total myotube area per well or Pax7-positive cell quantification.
DMD hMP were put in the Myotube assay according to the workflow described in Example 2.1. In particular, compound (i) was added at concentrations ranging from 1.5 nM to 30 µM, starting from day 4. hMP were cultivated for three more days in presence of compound (i), then fixed and analyzed for quantification of total myotube area per well. Duplicates of each condition were averaged.

EC50 | SMILES | Emax
– | COc1ccccc1-n1nc(C(C)(C)C)cc1NC(=O)Nc1ccc(Oc2ccnc3[nH]c(=O)cnc23)cc1SC [(av), 1-(3-(tert-butyl)-1-(2-methoxyphenyl)-1H-pyrazol-5-yl)-3-(2-(methylthio)-4-((3-oxo-3,4-dihydropyrido[2,3-b]pyrazin-8-yl)oxy)phenyl)urea] | ≥ 75%
< 500 nM | CSc1cc(Oc2ccnc3[nH]c(=O)cnc23)ccc1NC(=O)Nc1cc(C(C)(C)C)nn1-c1ccc(C)c(C)c1 [(cd), 1-(3-(tert-butyl)-1-(3,4-dimethylphenyl)-1H-pyrazol-5-yl)-3-(2-(methylthio)-4-((3-oxo-3,4-dihydropyrido[2,3-b]pyrazin-8-yl)oxy)phenyl)urea] | ≥ 75%
500 to 1000 nM | CSc1cc(Oc2ccnc(NC(C)=O)c2)ccc1NC(=O)Nc1cc(C(C)(C)C)nn1-c1ccccc1 [(aq), N-(4-(4-(3-(3-(tert-butyl)-1-phenyl-1H-pyrazol-5-yl)ureido)-3-(methylthio)phenoxy)pyridin-2-yl)acetamide] | ≥ 75%
≥ 5000 nM | CCC(C)c1cc(NC(=O)Nc2ccc(Oc3ccnc4[nH]c(=O)cnc34)cc2F)n(-c2ccccc2)n1 (stereo not drawn) [(c), 1-(3-(sec-butyl)-1-phenyl-1 H-pyrazol-5-yl)-3-(2-fluoro-4-((3-oxo-3,4-dihydropyrido[2,3-b]pyrazin-8-yl)oxy)phenyl)urea] | 50 to 75%
≥ 5000 nM | CC(C)c1cc(NC(=O)Nc2ccc(Oc3ccnc4[nH]c(=O)cnc34)cc2F)n(-c2ccccc2)n1 [(b), 1-(2-fluoro-4-((3-oxo-3,4-dihydropyrido[2,3-b]pyrazin-8-yl)oxy)phenyl)-3-(3-isopropyl-1-phenyl-1 H-pyrazol-5-yl)urea] | 25 to 50%
500 to 1000 nM | CC(C)(C)c1cc(NC(=O)Nc2ccc(Oc3ccnc4[nH]c(=O)cnc34)cc2F)n(-c2cccnc2)n1 [(l), 1-(3-(tert-butyl)-1-(pyridin-3-yl)-1 H-pyrazol-5-yl)-3-(2-fluoro-4-((3-oxo-3,4-dihydropyrido[2,3-b]pyrazin-8-yl)oxy)phenyl)urea] | 50 to 75%
500 to 1000 nM | CNC(=O)c1cncc(Oc2ccc(NC(=O)Nc3cc(C(C)(C)C)nn3-c3ccccc3)c(SC)c2)c1 [(ai), 5-(4-(3-(3-(tert-butyl)-1-phenyl-1H-pyrazol-5-yl)ureido)-3-(methylthio)phenoxy)-N-methylnicotinamide] | –
< 500 nM | CSc1cc(Oc2ccnc3[nH]c(=O)cnc23)ccc1NC(=O)Nc1cc(C(C)(C)C)nn1-c1ccc(C)nc1 [(bd), 1-(3-(tert-butyl)-1-(6-methylpyridin-3-yl)-1 H-pyrazol-5-yl)-3-(2-(methylthio)-4-((3-oxo-3,4-dihydropyrido[2,3-b]pyrazin-8-yl)oxy)phenyl)urea] | ≥ 75%
1000 to 5000 nM | CC(C)(C)c1cc(NC(=O)Nc2ccc(Oc3ccccc3)cc2F)n(-c2ccccc2)n1 [(ac), 1-(3-(tert-butyl)-1-phenyl-1H-pyrazol-5-yl)-3-(2-fluoro-4-phenoxyphenyl)urea] | 50 to 75%
< 500 nM | CSc1cc(Oc2ccnc3[nH]c(=O)cnc23)ccc1NC(=O)Nc1cc(C(C)(C)C)nn1-c1ccc(C#N)cc1 [(cc), 1-(3-(tert-butyl)-1-(4-cyanophenyl)-1H-pyrazol-5-yl)-3-(2-(methylthio)-4-((3-oxo-3,4-dihydropyrido[2,3-b]pyrazin-8-yl)oxy)phenyl)urea] | ≥ 75%
≥ 5000 nM | CSc1cc(Oc2cccc3[nH]c(=O)cnc23)ccc1NC(=O)Nc1cc(C(C)(C)C)nn1-c1ccccc1 [(bu), 1-(3-(tert-butyl)-1-phenyl-1H-pyrazol-5-yl)-3-(2-(methylthio)-4-((2-oxo-1,2-dihydroquinoxalin-5-yl)oxy)phenyl)urea] | 25 to 50%
< 500 nM | CCOC(=O)Nc1cc(Oc2ccc(NC(=O)Nc3cc(C(C)(C)C)on3)c(SC)c2)ccn1 [(di), ethyl (4-(4-(3-(5-(tert-butyl)isoxazol-3-yl)ureido)-3-(methylthio)phenoxy)pyridin-2-yl)carbamate] | ≥ 75%
≥ 5000 nM | CSc1cc(Oc2ccnc3[nH]c(=O)cnc23)ccc1NC(=O)Nc1ncc(C(C)(C)C)s1 [(ah), 1-(5-(tert-butyl)thiazol-2-yl)-3-(2-(methylthio)-4-((3-oxo-3,4-dihydropyrido[2,3-b]pyrazin-8-yl)oxy)phenyl)urea] | ≥ 75%
≥ 5000 nM | CSc1cc(Oc2ncnc3[nH]c(=O)cnc23)ccc1NC(=O)Nc1cc(C(C)(C)C)nn1-c1ccccc1 [(bv), 1-(3-(tert-butyl)-1-phenyl-1H-pyrazol-5-yl)-3-(2-(methylthio)-4-((7-oxo-7,8-dihydropteridin-4-yl)oxy)phenyl)urea] | ≥ 75%
500 to 1000 nM | CC(C)(C)c1cc(NC(=O)Nc2cc(Oc3ccnc4[nH]c(=O)cnc34)ccc2F)n(-c2ccccc2)n1 [(cq), 1-(3-(tert-butyl)-1-phenyl-1 H-pyrazol-5-yl)-3-(2-fluoro-5-((3-oxo-3,4-dihydropyrido[2,3-b]pyrazin-8-yl)oxy)phenyl)urea] | ≥ 75%
500 to 1000 nM | CNC(=O)c1ccc(Oc2ccc(NC(=O)Nc3cc(C(C)(C)C)nn3-c3ccccc3)c(SC)c2)cn1 [(ap), 5-(4-(3-(3-(tert-butyl)-1-phenyl-1H-pyrazol-5-yl)ureido)-3-(methylthio)phenoxy)-N-methylpicolinamide] | 25 to 50%
< 500 nM | CSc1cc(Oc2ccnc(NC(=O)CN(C)C(=O)OC(C)(C)C)c2)ccc1NC(=O)Nc1cc(C(C)(C)C)nn1-c1ccccc1 [(bp), tert-butyl (2-((4-(4-(3-(3-(tert-butyl)-1-phenyl-1H-pyrazol-5-yl)ureido)-3-(methylthio)phenoxy)pyridin-2-yl)amino)-2-oxoethyl)(methyl)carbamate] | ≥ 75%
≥ 5000 nM | CSc1cc(Oc2ccnc(N)c2)ccc1NC(=O)Nc1cc(C(C)(C)C)nn1-c1ccccc1 [(bj), 1-(4-((2-aminopyridin-4-yl)oxy)-2-(methylthio)phenyl)-3-(3-(tert-butyl)-1-phenyl-1H-pyrazol-5-yl)urea hydrochloride] | ≥ 75%
< 500 nM | CSc1cc(Oc2ccnc3[nH]c(=O)cnc23)ccc1NC(=O)Nc1cc(C(C)(C)C)nn1-c1ccc(CN2CCOCC2)cc1 [(dd), 1-(3-(tert-butyl)-1-(4-(morpholinomethyl)phenyl)-1 H-pyrazol-5-yl)-3-(2-(methylthio)-4-((3-oxo-3,4-dihydropyrido[2,3-b]pyrazin-8-yl)oxy)phenyl)urea] | ≥ 75%
500 to 1000 nM | CC(C)(C)c1cc(NC(=O)Nc2ccc(Oc3ccnc4[nH]c(=O)cnc34)c(OC(F)(F)F)c2)n(-c2ccccc2)n1 [(cp), 1-(3-(tert-butyl)-1-phenyl-1H-pyrazol-5-yl)-3-(4-((3-oxo-3,4-dihydropyrido[2,3-b]pyrazin-8-yl)oxy)-3-(trifluoromethoxy)phenyl)urea] | 50 to 75%
≥ 5000 nM | CSc1cc(Oc2ccnc3[nH]c(=O)cnc23)ccc1NC(=O)Nc1cc(C(C)(C)C)nn1-c1ccc(Cl)cc1 [(ao), 1-(3-(tert-butyl)-1-(4-chlorophenyl)-1H-pyrazol-5-yl)-3-(2-(methylthio)-4-((3-oxo-3,4-dihydropyrido[2,3-b]pyrazin-8-yl)oxy)phenyl)urea] | ≥ 75%
< 500 nM | CSc1cc(Oc2ccnc3[nH]c(=O)cnc23)ccc1NC(=O)Nc1cc(C(C)(C)C)nn1-c1ccc(OCCCN(C)C)cc1 [(cr), 1-(3-(tert-butyl)-1-(4-(3-(dimethylamino)propoxy)phenyl)-1H-pyrazol-5-yl)-3-(2-(methylthio)-4-((3-oxo-3,4-dihydropyrido[2,3-b]pyrazin-8-yl)oxy)phenyl)urea] | ≥ 75%
